In PubChem BioAssay AID1259408 (Genetic Toxicology Data Bank (GENE-TOX), 2018):
The source made the active and inactive calls. How the calls were made is not given here.

Tested on: GENE-TOX genotoxicity assays, various organisms and cells
Assay: GENE-TOX mutagenicity studies
[1] = Species/Cell Type: Drosophila melanogaster, Assay Type: Sex-linked recessive lethal gene mutation, Assay Code: SRL+, Evaluation Type: Evaluation A (Pre-1980)
[2] = Species/Cell Type: Salmonella typhimurium (one or more of the five standard strains: TA98, TA100, TA1535, TA1537, and TA1538), Assay Type: Histidine reverse gene mutation, Ames assay, Assay Code: SAL+*, Activation: With metabolic activation, Evaluation Type: Evaluation A (Pre-1980)
[3] = Species/Cell Type: Salmonella typhimurium, Assay Type: Forward and reverse gene mutation, host-mediated assay, Assay Code: HMA+, Evaluation Type: Evaluation A (Pre-1980)
[4] = Species/Cell Type: Salmonella typhimurium (one or more of the five standard strains: TA98, TA100, TA1535, TA1537, and TA1538), Assay Type: Histidine reverse gene mutation, Ames assay, Assay Code: SAL+, Evaluation Type: Evaluation A (Pre-1980)
[5] = Species/Cell Type: Bacillus subtilis (H17 vs M45), Assay Type: Rec-assay, spot test, DNA effects (bacterial DNA repair), Assay Code: REW-, Evaluation Type: Evaluation A (Pre-1980)
[6] = Species/Cell Type: Mammalian polychromatic erythrocytes, Assay Type: Micronucleus test, chromosome aberrations, Assay Code: MNT+, Evaluation Type: Evaluation B (Post-1980)

Compound: Cc1cc(Cl)ccc1OCC(=O)O
- mutagenic call (Species/Cell Type: Drosophila melanogaster, Assay Type: Aneuploidy, sex chromosome gain, chromosome aberrations, Assay Code: DAG-M-F, Evaluation Type: Evaluation A (Pre-1980)): inactive; negative
- mutagenic call (Species/Cell Type: Drosophila melanogaster, Assay Type: Aneuploidy, whole sex chromosome loss, chromosome aberrations, Assay Code: DAC-M-F, Evaluation Type: Evaluation A (Pre-1980)): inactive; negative
- mutagenic call [1]: active; positive
- mutagenic call (Species/Cell Type: Saccharomyces cerevisiae, Assay Type: Reverse gene mutation, Assay Code: YER+, Evaluation Type: Evaluation A (Pre-1980)): active; positive
- mutagenic call (Species/Cell Type: Salmonella typhimurium, Serratia marcesens, Assay Type: Forward and reverse gene mutation, host-mediated assay, Assay Code: HM2-, Evaluation Type: Evaluation A (Pre-1980)): inactive; negative

Compound: CN(C)S(=O)(=O)N(SC(F)(Cl)Cl)c1ccccc1
- mutagenic call (Species/Cell Type: Bacillus subtilis (H17 vs M45), Assay Type: Rec-assay, spot test, DNA effects (bacterial DNA repair), Assay Code: REWT, Evaluation Type: Evaluation A (Pre-1980)): no conclusion
- mutagenic call (Species/Cell Type: Saccharomyces cerevisiae, Assay Type: Mitotic recombination or gene conversion, Assay Code: YEC-, Evaluation Type: Evaluation A (Pre-1980)): inactive; negative

Compound: Cc1c2c(c3ccc4ccccc4c3c1C)CCC2=O
- mutagenic call [2]: active; positive

Compound: COC(=O)Nc1ncc(-c2ccc(OC)cc2)[nH]1
- mutagenic call [3]: active; positive

Compound: O=C(N[C@@H](CO)[C@@H](O)c1ccc([N+](=O)[O-])cc1)C(Cl)Cl
- mutagenic call [4]: active; positive

Compound: [Cl][Zn][Cl]
- mutagenic call [5]: inactive; negative
- mutagenic call (Species/Cell Type: Human lymphocytes or leukocytes, Assay Type: Chromosome aberrations in vitro, Assay Code: CY7-, Evaluation Type: Evaluation A (Pre-1980)): inactive; negative
- mutagenic call (Species/Cell Type: Mouse, Sex: Male, Assay Type: Sperm morphology, Assay Code: SPI-, Evaluation Type: Evaluation A (Pre-1980)): inactive; negative
- mutagenic call [4]: active; positive
- mutagenic call [3]: active; positive
- mutagenic call (Species/Cell Type: Syrian hamster embryo (SA7/SHE) cells, Assay Type: Cell transformation, viral enhanced, Assay Code: CT7+, Evaluation Type: Evaluation A (Pre-1980)): active; positive

Compound: CCN(CCCl)CCCNc1c2ccccc2nc2c1ccc1ccccc12
- mutagenic call (Species/Cell Type: Chinese hamster ovary (CHO) cells, Assay Type: Forward gene mutation at the HPRT locus, Assay Code: CHO+D, Dose Response: With dose response, Evaluation Type: Evaluation A (Pre-1980)): active; positive

Compound: CC1C(=O)OC2CC[N+]3([O-])CC=C(COC(=O)C(C)(O)C1(C)O)C23 (stereo not given)
- mutagenic call [1]: active; positive

Compound: c1nnc(NCNc2nncs2)s1
- mutagenic call (Species/Cell Type: Mammalian polychromatic erythrocytes, Assay Type: Micronucleus test, chromosome aberrations, Assay Code: MNT+U, Dose Response: Unconfirmed positive response, Evaluation Type: Evaluation B (Post-1980)): active; positive

Compound: C/C=C1/C[C@@H](C)[C@@](C)(O)C(=O)OCC2=CCN3CC[C@@H](OC1=O)[C@@H]23
- mutagenic call [1]: active; positive

Compound: O=C(O)CC(O)(CC(=O)O)C(=O)O
- mutagenic call [6]: active; positive

Compound: Nc1cc2c3ccccc3ccc2c2ccccc12
- mutagenic call [2]: active; positive

Compound: CCCCOc1ccc(CC(=O)NOS(=O)(=O)O)cc1
- mutagenic call (Species/Cell Type: Nonhuman, Assay Type: Sister-chromatid exchange (SCE) in vitro, Assay Code: SC2+, Evaluation Type: Evaluation B (Post-1980)): active; positive

Compound: OCCN1CCN(CCCN2c3ccccc3Sc3ccc(C(F)(F)F)cc32)CC1
- mutagenic call [6]: active; positive

Compound: Cc1c(N)c(=O)n(-c2ccccc2)n1C
- mutagenic call (Species/Cell Type: Salmonella typhimurium (one or more of the five standard strains: TA98, TA100, TA1535, TA1537, and TA1538), Assay Type: Histidine reverse gene mutation, Ames assay, Assay Code: SAL-, Evaluation Type: Evaluation A (Pre-1980)): inactive; negative

Compound: CCOC(=O)Nc1ccc(-c2c3ccccc3c3cc(N)ccc3[n+]2C)cc1
- mutagenic call [4]: active; positive

Compound: CC(C)OC(=O)Nc1ccccc1
- mutagenic call (Species/Cell Type: Vicia faba, Assay Type: Chromosome aberrations, Assay Code: VIC+D, Dose Response: With dose response, Evaluation Type: Evaluation A (Pre-1980)): active; positive

Compound: C/C(=C(\CCOC(=O)c1ccccc1)SC(=O)c1ccccc1)N(C=O)Cc1cnc(C)nc1N
- mutagenic call [5]: inactive; negative
- mutagenic call (Species/Cell Type: Escherichia coli WP2, Assay Type: Tryptophan reverse gene mutation, Assay Code: WP2-*, Activation: With metabolic activation, Evaluation Type: Evaluation A (Pre-1980)): inactive; negative
- mutagenic call (Species/Cell Type: Escherichia coli WP2 UVRA, Assay Type: Tryptophan reverse gene mutation, Assay Code: WPU-*, Activation: With metabolic activation, Evaluation Type: Evaluation A (Pre-1980)): inactive; negative
